Our source for the IC50 values is US5859012A, “Inhibitors of farnesyl-protein transferase” (Merck & Co., Inc., priority 1997, dated 1999).

Where a name gives a salt, the structure may show the parent alone.

In the experiment the target is T1, human FPTase (Homo sapiens, UniProt P49354+P49356).
T1 construct: made in house
The experiment in a line: In vitro inhibition of ras farnesyl transferase (human FPTase assay, [3H]-FPP incorporation into Ras-CVIM). It counts as biochemical. To be noted: 100 nM Ras-CVIM, 30 min, read-out: IC50, inhibitory activity against human FPTase.

For `N#Cc1ccc(Cn2cncc2CN2CCN(c3cccc(Cl)c3)C(=O)C2=O)cc1` [Example 1, 4-[1-(4-Cyanobenzyl)-5-imidazolylmethyl]-1-(3-chlorophenyl)-piperazine-2,3-dione hydrochloride], the IC50 was at most 10 µM.

Regarding `CCCC[C@H]1CN(c2cccc(C)c2C)C(=O)C(=O)N1Cc1cncn1Cc1ccc(C#N)cc1` [Example 2, (S)-5-n-butyl-4-[1-(4-cyanobenzyl)-5-imidazolylmethyl]-1-(2,3-dimethylphenyl)-2,3-piperazinedione hydrochloride], the half-inhibitory concentration (IC50) is at most 10 µM.

Usually IC50 stands for the concentration that inhibits the measured activity by half.
